Test results: article PMC6407913, “DREADD Agonist 21 Is an Effective Agonist for Muscarinic-Based DREADDs in Vitro and in Vivo” (ACS Pharmacology & Translational Science, 2018)
“And” between values parts separate entries of the source, which are not always exact repeats. Equal entries are not always repeated. Where two headings read alike, the source gives them in different places.

Columns and labels:
hM1 = molecular target: T1, hM1 (Homo sapiens, UniProt P11229); experiment: whole-cell [3H]NMS competition binding; conditions: hM1, FlpIn CHO cells, mean (±SEM)
T1 sequence (P11229 1-460): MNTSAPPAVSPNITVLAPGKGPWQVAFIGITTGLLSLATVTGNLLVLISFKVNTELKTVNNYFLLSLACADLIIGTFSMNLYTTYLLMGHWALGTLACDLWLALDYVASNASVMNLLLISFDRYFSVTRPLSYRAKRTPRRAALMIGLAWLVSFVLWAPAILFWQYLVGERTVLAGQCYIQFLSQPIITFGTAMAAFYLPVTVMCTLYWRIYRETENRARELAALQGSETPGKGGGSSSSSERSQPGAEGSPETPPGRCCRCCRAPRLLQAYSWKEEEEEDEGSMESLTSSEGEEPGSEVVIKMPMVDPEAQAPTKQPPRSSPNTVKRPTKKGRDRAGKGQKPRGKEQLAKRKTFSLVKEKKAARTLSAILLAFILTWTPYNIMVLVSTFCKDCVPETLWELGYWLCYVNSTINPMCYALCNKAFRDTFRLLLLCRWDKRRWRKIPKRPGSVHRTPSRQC

H3 = H3 (Homo sapiens, UniProt Q9Y5N1); experiment: NIMH PDSP radioligand binding, membranes
Method: (§1) Radioligand binding assays with membrane preparations to determine binding affinity were carried out as outlined before[540] and by the National Institute of Mental Health’s Psychoactive Drug Screening Program (NIMH PDSP) (https://pdsp.unc.edu/), Contract # HHSN-271–2013–00017-C. The NIMH PDSP is Directed by B.L.R. at the University of North Carolina at Chapel Hill, Chapel Hill, NC, and Project Officer Jamie Driscoll at NIMH, Bethesda, MD.

Alpha2B = molecular target: T2, Alpha2B (Homo sapiens, UniProt P18089); experiment: NIMH PDSP radioligand binding, membranes
T2 construct: NIMH PDSP
Method: as §1

CB2 = molecular target: T3, CB2 (Homo sapiens, UniProt P34972); experiment: NIMH PDSP radioligand binding, membranes
T3 construct: NIMH PDSP
Method: as §1

Beta2 = Beta2 (Homo sapiens, UniProt P07550); experiment: NIMH PDSP radioligand binding, membranes
Method: as §1

5-HT1D = 5-HT1D (Homo sapiens, UniProt P28221); experiment: NIMH PDSP radioligand binding, membranes
Method: as §1

MOR = MOR (Homo sapiens, UniProt P35372); experiment: NIMH PDSP radioligand binding, membranes
Method: as §1

5-HT2C = molecular target: T4, 5-HT2C (Homo sapiens, UniProt P28335); experiment: NIMH PDSP radioligand binding, membranes
T4 sequence (P28335 33-458): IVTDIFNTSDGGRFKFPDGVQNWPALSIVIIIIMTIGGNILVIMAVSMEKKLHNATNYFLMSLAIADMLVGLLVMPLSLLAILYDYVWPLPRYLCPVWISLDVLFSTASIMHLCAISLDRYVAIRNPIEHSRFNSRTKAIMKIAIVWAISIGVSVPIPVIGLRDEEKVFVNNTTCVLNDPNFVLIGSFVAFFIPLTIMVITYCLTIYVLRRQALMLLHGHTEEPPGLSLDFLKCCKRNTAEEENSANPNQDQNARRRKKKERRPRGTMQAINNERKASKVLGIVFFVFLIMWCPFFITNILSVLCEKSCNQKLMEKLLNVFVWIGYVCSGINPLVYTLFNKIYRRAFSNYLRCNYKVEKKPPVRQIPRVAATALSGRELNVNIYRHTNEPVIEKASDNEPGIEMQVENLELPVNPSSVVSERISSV
Method: as §1

D3 = D3 (Homo sapiens, UniProt P35462); experiment: NIMH PDSP radioligand binding, membranes
Method: as §1

M2 = M2 (Homo sapiens, UniProt P08172); experiment: NIMH PDSP radioligand binding, membranes
Method: as §1

5-HT2A = 5-HT2A (Homo sapiens, UniProt P28223); experiment: NIMH PDSP radioligand binding, membranes
Method: as §1

dopamine D1 receptors = dopamine D1 receptors (Homo sapiens, UniProt P21728); experiment: cAMP signaling concentration-response, agonist mode; assay type: cell-based
Method: HEK293 T cells were used for transient transfections and Gi mediated cAMP production assays. Assays were performed according to published procedures (PMID25895059, PRESTO-Tango paper). More detailed assay protocols are available at NIMH PDSP Web site (http://pdspdb.unc.edu/pdspWeb/?site=assays).
HEK293T cells in 10 cm plates were transfected with 4 μg of Glosensor and 4 μg of DNA encoding the human dopamine D1 receptor. The next day, cells were harvested and plated in polylysine-coated 384-well plates (Greiner) at a density of 20 000 cells/well in DMEM containing 1% dFBS. The next day, media was aspirated from each well and replaced with 20 μL of assay buffer containing 4 mM luciferin. Then, 10 μL of drugs were added 30 min later, and plates were read after 15 min.

hM4 = molecular target: T5, hM4 (Homo sapiens, UniProt P08173); experiment: inhibition of isoproterenol-stimulated cAMP production; assay type: cell-based; conditions: hM4, inhibition of isoproterenol elevated cAMP, mean (±SEM)
T5 construct: HA (hemagglutinin); expressed in transfected cells
T5 sequence (P08173 1-479): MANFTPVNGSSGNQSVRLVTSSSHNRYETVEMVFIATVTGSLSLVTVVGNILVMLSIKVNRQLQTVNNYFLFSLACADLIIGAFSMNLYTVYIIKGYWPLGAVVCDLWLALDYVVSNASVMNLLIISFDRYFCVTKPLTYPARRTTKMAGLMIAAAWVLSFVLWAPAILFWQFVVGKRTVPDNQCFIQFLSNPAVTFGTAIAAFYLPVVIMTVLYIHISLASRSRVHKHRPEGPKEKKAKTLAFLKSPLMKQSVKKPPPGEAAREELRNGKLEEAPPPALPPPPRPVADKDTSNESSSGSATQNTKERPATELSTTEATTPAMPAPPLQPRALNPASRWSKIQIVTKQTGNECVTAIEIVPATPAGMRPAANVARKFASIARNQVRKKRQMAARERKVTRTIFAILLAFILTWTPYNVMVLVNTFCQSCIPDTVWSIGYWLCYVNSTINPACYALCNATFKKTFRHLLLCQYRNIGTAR

[1] = tested on: hM3Dq expressed in ARC AgRP neurons; experiment: food intake, hM3Dq in ARC AgRP neurons (Agrp-ires-Cre mice)
[2] = read-out: Ki #1-#5 (individual assays)
[3] = read-out: log Ki (individual assays) (converted)

Chain of H3 (Q9Y5N1 whole entry): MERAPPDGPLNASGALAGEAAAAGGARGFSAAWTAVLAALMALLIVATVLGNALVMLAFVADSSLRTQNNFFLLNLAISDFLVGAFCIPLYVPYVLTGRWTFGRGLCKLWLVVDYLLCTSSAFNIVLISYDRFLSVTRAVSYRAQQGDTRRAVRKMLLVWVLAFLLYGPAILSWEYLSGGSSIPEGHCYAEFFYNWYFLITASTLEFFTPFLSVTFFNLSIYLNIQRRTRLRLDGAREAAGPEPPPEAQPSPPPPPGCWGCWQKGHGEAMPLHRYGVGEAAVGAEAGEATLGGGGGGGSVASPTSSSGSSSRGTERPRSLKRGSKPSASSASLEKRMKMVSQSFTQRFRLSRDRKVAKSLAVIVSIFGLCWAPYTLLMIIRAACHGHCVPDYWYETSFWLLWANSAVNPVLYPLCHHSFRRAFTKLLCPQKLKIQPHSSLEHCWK
T2 sequence (P18089 whole entry): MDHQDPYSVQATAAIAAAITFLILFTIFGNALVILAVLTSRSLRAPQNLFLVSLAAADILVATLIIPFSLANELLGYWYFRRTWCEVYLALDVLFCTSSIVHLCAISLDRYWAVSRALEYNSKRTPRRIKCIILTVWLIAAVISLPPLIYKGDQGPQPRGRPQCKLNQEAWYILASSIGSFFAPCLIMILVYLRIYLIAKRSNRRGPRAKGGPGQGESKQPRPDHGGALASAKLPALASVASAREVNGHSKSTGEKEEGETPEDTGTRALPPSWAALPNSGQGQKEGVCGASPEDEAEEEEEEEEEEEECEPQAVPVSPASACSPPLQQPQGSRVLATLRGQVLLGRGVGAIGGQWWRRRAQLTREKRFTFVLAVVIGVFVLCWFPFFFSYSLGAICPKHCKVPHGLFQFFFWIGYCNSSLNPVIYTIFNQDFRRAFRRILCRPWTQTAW
Chain of 5-HT2A (P28223 whole entry, species assumed): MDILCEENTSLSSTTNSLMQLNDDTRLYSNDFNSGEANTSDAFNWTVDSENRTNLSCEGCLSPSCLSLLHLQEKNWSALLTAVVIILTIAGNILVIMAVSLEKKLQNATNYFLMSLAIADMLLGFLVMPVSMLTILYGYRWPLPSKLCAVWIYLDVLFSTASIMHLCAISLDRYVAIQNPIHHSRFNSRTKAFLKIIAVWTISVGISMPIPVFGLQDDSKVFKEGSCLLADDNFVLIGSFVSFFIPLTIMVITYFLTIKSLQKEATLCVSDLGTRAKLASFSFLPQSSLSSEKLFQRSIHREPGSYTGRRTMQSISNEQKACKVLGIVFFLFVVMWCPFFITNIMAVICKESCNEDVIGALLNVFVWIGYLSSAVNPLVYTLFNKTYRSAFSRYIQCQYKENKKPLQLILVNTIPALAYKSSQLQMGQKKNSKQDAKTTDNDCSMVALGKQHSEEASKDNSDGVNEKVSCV
Chain of 5-HT1D (P28221 whole entry, species assumed): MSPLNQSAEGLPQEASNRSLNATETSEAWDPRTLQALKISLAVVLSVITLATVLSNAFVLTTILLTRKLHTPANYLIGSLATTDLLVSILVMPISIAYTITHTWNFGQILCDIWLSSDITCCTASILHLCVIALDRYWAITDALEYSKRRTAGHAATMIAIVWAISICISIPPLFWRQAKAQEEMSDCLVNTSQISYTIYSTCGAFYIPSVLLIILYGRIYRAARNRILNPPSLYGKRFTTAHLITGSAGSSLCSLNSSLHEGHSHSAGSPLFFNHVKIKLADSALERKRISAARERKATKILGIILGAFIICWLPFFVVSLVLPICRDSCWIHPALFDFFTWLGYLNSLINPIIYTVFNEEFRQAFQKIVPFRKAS
Chain of M2 (P08172 whole entry): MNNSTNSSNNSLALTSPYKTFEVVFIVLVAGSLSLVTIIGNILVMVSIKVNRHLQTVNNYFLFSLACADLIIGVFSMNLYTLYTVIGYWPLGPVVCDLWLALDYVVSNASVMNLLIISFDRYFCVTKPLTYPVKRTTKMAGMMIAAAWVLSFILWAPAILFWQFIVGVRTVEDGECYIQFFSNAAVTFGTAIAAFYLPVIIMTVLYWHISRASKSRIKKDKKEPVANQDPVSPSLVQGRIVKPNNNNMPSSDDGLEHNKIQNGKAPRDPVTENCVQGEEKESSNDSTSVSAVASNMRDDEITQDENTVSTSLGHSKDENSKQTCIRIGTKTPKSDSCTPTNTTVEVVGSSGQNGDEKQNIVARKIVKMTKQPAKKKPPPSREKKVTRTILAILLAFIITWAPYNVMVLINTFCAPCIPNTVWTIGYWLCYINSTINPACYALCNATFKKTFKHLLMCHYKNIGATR
Chain of D3 (P35462 whole entry): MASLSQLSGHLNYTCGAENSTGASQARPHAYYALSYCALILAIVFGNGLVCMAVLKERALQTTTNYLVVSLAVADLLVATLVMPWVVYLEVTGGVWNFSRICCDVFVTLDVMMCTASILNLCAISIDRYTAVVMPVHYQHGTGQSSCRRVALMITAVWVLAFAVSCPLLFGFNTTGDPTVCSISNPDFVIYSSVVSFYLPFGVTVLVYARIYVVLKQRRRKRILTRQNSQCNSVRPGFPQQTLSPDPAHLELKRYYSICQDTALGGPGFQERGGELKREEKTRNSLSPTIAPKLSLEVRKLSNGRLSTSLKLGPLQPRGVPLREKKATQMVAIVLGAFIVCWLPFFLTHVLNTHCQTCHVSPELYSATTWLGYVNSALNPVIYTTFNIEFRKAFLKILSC
Chain of MOR (P35372 whole entry): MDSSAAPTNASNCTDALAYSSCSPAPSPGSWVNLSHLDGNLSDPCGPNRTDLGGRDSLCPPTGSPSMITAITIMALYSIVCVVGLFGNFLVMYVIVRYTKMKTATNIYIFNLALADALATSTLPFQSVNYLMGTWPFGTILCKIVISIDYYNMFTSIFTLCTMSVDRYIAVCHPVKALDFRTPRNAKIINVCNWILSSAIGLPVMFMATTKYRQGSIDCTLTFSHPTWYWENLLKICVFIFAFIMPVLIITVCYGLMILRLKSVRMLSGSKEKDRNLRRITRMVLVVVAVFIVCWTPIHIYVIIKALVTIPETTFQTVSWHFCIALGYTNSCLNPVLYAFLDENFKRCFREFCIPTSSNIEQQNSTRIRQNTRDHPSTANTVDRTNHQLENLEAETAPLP
T3 sequence (P34972 whole entry, species assumed): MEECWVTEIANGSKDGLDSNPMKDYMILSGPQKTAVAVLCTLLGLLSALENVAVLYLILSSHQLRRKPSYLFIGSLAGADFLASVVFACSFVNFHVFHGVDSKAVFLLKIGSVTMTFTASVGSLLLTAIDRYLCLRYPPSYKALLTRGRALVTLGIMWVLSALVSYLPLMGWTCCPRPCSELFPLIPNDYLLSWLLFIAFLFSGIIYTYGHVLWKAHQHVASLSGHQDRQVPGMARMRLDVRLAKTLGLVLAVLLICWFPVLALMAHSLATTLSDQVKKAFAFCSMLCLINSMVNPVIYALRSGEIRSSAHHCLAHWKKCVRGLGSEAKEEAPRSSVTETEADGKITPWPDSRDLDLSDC
Chain of Beta2 (P07550 whole entry): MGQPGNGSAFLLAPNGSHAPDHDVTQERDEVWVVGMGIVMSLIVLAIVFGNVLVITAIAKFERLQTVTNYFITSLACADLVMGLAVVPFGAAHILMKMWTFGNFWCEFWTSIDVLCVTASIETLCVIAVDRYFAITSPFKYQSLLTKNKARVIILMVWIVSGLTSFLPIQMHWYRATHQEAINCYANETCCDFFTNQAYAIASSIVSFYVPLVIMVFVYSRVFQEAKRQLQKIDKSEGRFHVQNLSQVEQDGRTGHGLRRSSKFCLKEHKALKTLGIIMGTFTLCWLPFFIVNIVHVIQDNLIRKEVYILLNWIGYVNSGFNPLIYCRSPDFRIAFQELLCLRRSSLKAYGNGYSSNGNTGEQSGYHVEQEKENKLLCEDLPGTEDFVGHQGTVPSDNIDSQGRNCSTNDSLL
Chain of dopamine D1 receptors (P21728 whole entry): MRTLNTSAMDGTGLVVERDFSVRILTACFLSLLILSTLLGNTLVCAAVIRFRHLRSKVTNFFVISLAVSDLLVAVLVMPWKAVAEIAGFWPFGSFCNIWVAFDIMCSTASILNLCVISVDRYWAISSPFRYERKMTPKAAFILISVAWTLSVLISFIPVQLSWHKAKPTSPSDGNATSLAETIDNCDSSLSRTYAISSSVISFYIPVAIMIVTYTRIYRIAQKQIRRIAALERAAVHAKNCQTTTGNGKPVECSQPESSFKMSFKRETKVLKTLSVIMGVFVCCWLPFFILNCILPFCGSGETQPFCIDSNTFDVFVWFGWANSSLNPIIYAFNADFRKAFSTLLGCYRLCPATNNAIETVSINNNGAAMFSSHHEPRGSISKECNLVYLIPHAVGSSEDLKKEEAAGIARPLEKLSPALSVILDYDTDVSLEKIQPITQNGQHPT

For `c1ccc2c(c1)N=C(N1CCNCC1)c1ccccc1N2` [C21, 11-(1-piperazinyl)-5H-dibenzo[b,e][1,4]diazepine], the Ki (hM1) was 1070 nM, the Ki (H3; read-out: Ki) was 4940 nM and the Ki (H3; [2]) was 6850 nM and 4580 nM and 3850 nM. The Ki (Alpha2B; read-out: Ki) was 474 nM, the Ki (Alpha2B; [2]) was 1520 nM and 157 nM and 247 nM and 857 nM and the Ki (CB2; read-out: Ki) was > 10000 nM. For the same molecule, the Ki (CB2; [2]) was > 10000 nM, the Ki (Beta2; read-out: Ki) was > 10000 nM and the Ki (Beta2; [2]) was > 10000 nM. For the same molecule, the Ki (5-HT1D; read-out: Ki) was 972 nM, the Ki (5-HT1D; [2]) was 1190 nM and 785 nM and 983 nM and the Ki (MOR; read-out: Ki) was 3880 nM. For the same molecule, the Ki (MOR; [2]) was 2230 nM and 4820 nM and 5430 nM, the Ki (5-HT2C; read-out: Ki) was 47.9 nM and the Ki (5-HT2C; [2]) was 48.2 nM and 57 nM. For the same molecule, the Ki (5-HT2C; [3]) was 39.8 nM, the Ki (D3; read-out: Ki) was 870 nM and the Ki (D3; [2]) was 1520 nM and 1160 nM and 372 nM. The Ki (M2; read-out: Ki) was 146 nM, the Ki (M2; [2]) was 246 nM and 139 nM and 91 nM and the Ki (5-HT2A; read-out: Ki) was 44.3 nM. The Ki (5-HT2A; [2]) was 58.9 nM and 51 nM, the Ki (5-HT2A; [3]) was 28.8 nM and the “agonist activity, follow-up concentration-response (cAMP)” value (dopamine D1 receptors) was “minimal activity”. The EC50 (hM4) was 1860 nM, the “food intake, light cycle, sated mice” value ([1]; AgRP-ires-Cre mice with AAV-DIO-hM3Dq-mCherry, i.p.) was “dose-dependently promoted food consumption at comparable levels to CNO” and the “food intake in control mice” value ([1]; wildtype (non-Cre-expressing) littermates injected with AAV-DIO-hM3Dq-mCherry) was “neither C21 nor CNO affected feeding behavior”.
